Experimental data published in patent publication US20250066363A1, “Bicyclic DGK Inhibitors” (Incyte Corporation, priority 2023, published 2025).

Assays:
DGKα = DGKα (Homo sapiens (Human), UniProt P23743); assay: In vitro DGKα inhibition assay (ADP-Glo); format: biochemical; details: first column of Table A; His-tagged human recombinant DGKα 0.1 nM, 50 μM ATP, 20 μM DLG
Experimental: (§1) The DGKα and DGKζ biochemical reactions were performed using His-tagged human recombinant enzymes (Signal Chem, DGKα, #D21-10BH; DGKζ, #D30-1OH)) and DLG (Dilauroyl-sn-glycerol) lipid substrate (Signal Chem, #D430-59). ADP-Glo assay was performed using ADP-Glo™ kinase Assay kit (Promega, #V9104). The reactions were carried out in assay buffer containing 40 mM Tris, pH 7.5, 0.1% CHAPS, 0.1% Prionex, 40 mM NaCl, 5 mM MgCl2, 1 mM CaCl2, and 1 mM DTT. DGKα reactions contained 0.1 nM DGKα, 50 μM ATP, and 20 μM DLG. And DGKζ reactions contained 0.4 nM DGKζ, 30 μM ATP, and 20 μM DLG.
(§2) For compound inhibition studies, 40 nL test compound in DMSO was added to wells of white polystyrene plates in 384-well (Greiner, #784075) or 1536-well format (Greiner, #782075). Compounds were added with top concentration of 2 mM with 11 point, 3-fold dilution series. Enzyme solution (contains 2× DGK enzyme concentration in 1× assay buffer) was added to the plate in 2 μL/well volume, followed by 2 μL/well of substrate solution (contains 2× concentration of ATP and DLG substrate in 1× assay buffer). Plates were then centrifuged for 1 min at 1200 RPM and sealed or lidded. For 4 μL reaction volume, test compounds were therefore diluted 100× to final top concentration of 20 μM. After 90 minute incubation, reactions were quenched by addition of 2 μL/well Promega ADP-Glo Reagent, followed by centrifugation and lidding. After 60 min incubation, 2 μL/well Promega Kinase Detection Reagent was added, plates centrifuged, and incubated for 30 min. Plates were then read using Luminescence method on BMG PHERAstar FSX plate reader. Percent inhibition was calculated and IC50s were determined using 4-parameter fit in Genedata Screener. Labcyte Echo acoustic dispenser was used for compound addition, and Formulatrix Tempest liquid handler was used for all reagent dispenses.

DGKζ = DGKζ (Homo sapiens (Human), UniProt Q13574); assay: In vitro DGKζ inhibition assay (ADP-Glo); format: biochemical; details: second column of Table A, head printed DGKα, presumably DGKζ; His-tagged human recombinant DGKζ 0.4 nM, 30 μM ATP, 20 μM DLG
Experimental: as §1, §2

Sequence of DGKζ (Q13574 whole entry): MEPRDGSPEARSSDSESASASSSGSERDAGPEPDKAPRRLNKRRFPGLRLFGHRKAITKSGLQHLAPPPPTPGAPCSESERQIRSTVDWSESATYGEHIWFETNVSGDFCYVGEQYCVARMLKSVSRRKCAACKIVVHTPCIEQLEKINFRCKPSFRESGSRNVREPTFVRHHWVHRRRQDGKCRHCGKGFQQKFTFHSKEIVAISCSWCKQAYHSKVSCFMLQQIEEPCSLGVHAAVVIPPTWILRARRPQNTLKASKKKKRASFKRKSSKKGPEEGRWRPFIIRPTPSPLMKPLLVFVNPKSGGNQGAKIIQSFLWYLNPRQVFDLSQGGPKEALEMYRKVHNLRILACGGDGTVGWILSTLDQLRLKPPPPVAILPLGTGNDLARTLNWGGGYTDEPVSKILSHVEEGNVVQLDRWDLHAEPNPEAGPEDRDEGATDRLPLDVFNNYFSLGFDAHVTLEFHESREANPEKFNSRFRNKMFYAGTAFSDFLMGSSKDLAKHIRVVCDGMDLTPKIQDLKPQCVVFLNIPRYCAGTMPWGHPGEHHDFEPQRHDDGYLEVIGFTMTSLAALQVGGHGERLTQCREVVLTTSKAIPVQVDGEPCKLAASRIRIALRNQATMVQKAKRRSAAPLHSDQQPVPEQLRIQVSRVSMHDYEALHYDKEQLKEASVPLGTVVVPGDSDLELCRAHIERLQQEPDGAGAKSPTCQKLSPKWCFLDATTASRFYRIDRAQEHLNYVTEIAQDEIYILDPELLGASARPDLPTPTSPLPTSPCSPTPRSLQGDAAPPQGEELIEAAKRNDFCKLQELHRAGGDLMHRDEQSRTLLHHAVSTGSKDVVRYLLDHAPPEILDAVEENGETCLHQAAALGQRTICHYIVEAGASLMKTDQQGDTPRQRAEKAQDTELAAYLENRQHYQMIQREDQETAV
Sequence of DGKα (P23743 whole entry): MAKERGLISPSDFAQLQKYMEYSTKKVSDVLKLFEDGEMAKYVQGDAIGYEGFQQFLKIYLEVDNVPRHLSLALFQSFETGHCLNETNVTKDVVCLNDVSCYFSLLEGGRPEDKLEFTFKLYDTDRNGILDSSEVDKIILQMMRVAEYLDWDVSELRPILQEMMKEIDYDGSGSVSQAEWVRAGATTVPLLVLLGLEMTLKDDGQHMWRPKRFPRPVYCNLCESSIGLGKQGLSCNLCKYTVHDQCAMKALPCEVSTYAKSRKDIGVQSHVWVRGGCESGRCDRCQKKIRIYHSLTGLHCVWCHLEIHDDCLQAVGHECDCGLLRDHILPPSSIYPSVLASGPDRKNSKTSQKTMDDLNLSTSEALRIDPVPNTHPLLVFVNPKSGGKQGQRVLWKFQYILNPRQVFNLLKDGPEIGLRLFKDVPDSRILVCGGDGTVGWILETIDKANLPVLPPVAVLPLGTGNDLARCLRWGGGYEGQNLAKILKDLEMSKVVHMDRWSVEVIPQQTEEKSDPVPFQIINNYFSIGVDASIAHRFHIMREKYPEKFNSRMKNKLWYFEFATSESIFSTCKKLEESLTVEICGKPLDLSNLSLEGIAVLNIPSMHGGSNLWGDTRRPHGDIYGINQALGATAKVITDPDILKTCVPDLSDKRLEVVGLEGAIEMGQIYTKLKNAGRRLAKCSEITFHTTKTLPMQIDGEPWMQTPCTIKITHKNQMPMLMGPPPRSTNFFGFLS

| Structure (SMILES) | IC50 (DGKα) [nM] | IC50 (DGKζ) [nM] |
| --- | --- | --- |
| Cc1nc2c(N3C[C@@H](C)N(C(c4ccc(C(F)(F)F)cc4)C4CC(F)(F)C4)C[C@@H]3C)nc(=O)[nH]c2n1C[C@@H]1CCCO1 (single isomer, unassigned) [Example 14] | ≤ 10 | ≤ 100 |
| Cc1nc2c(N3C[C@@H](C)N(C(c4ccc(C(F)(F)F)cc4)C4CC(F)(F)C4)C[C@@H]3C)nc(=O)n(C)c2n1C[C@@H]1CCCO1 (single isomer, unassigned) [Example 15] | ≤ 10 | ≤ 10 |
| CC(C)CC(c1ccc(Cl)cc1)N1C[C@H](C)N(c2nc(=O)n(C)c3c2nnn3C[C@@H]2CCCO2)C[C@H]1C (single isomer, unassigned) [Example 17] | ≤ 10 | ≤ 10 |
| CC(C)CC(c1ccc(Cl)cc1)N1C[C@H](C)N(c2nc(=O)n(C)c3c2nnn3C[C@H]2CCCO2)C[C@H]1C (single isomer, unassigned) [Example 18] | ≤ 10 | ≤ 10 |
| CC(C)CC(c1ccc(Cl)cc1)N1C[C@H](C)N(c2nc(=O)n(C)c3c2ncn3C[C@H]2OCC[C@@H]2O)C[C@H]1C (single isomer, unassigned) [Example 19] | ≤ 10 | ≤ 10 |
| CC[C@@H]1CN(c2nc(=O)n(C)c3c2nnn3C[C@H]2CCCO2)[C@@H](C)CN1C(CC(C)C)c1ccc(Cl)cc1 (single isomer, unassigned) [Example 20] | ≤ 10 | ≤ 10 |
| Cc1nc2c(N3C[C@@H](C)N(C(c4ccc(C(F)(F)F)cc4)[C@H]4CC4(F)F)C[C@@H]3C)nc(=O)n(C)c2n1C[C@@H]1CCCO1 (single isomer, unassigned) [Example 21] |  | ≤ 10 |
| Cc1nc2c(N3C[C@@H](C)N(C(c4ccc(C(F)(F)F)cc4)C4CC(F)(F)C4)C[C@@H]3C)nc(=O)n(C)c2n1C[C@H]1OCC[C@@H]1O (single isomer, unassigned) [Example 34] | ≤ 10 | ≤ 10 |
| Cc1nc2c(N3C[C@@H](C)N(C(c4ccc(C(F)(F)F)cc4)C4CC(F)(F)C4)C[C@@H]3C)nc(=O)n(C)c2n1C[C@H]1OCC[C@H]1O (single isomer, unassigned) [Example 35] | ≤ 10 | ≤ 10 |
| Cc1nc2c(N3C[C@@H](C(F)F)N(C(c4ccc(C(F)(F)F)cc4)C4CC(F)(F)C4)C[C@@H]3C)nc(=O)n(C)c2n1C[C@@H]1CCCO1 (single isomer, unassigned) [Example 42] | ≤ 10 | ≤ 10 |
| CC[C@@H]1CN(c2nc(=O)n(C)c3c2nc(C)n3C[C@@H]2CCCO2)[C@@H](C)CN1C(c1ccc(C(F)(F)F)c(F)c1)C(C)C (single isomer, unassigned) [Example 46] | ≤ 10 | ≤ 10 |
| CC[C@@H]1CN(c2nc(=O)n(C)c3c2nnn3CC2(O)CCC2)[C@@H](C)CN1C(C)c1ccc(C(F)(F)F)cc1 (single isomer, unassigned) [Example 64] | ≤ 10 | ≤ 10 |
| C[C@@H]1CN(c2nc(=O)n(C)c3c2ncn3CC2(O)CCCC2)[C@@H](C)CN1C(c1ccc(Cl)cc1)C1CC(F)(F)C1 (single isomer, unassigned) [Example 66] | ≤ 10 | ≤ 10 |
| CC[C@@H]1CN(c2nc(=O)n(C)c3c2nc(C)n3C[C@H]2OCC[C@@H]2O)[C@@H](C)CN1C(c1ccc(C(F)(F)F)cc1)C1CC(F)(F)C1 (single isomer, unassigned) [Example 68] | ≤ 10 | ≤ 10 |
| CCC(c1ccc(C(F)(F)F)cc1)N1C[C@H](C)N(c2nc(=O)n(C)c3c2ncn3CC2(O)CCCC2)C[C@H]1CC (single isomer, unassigned) [Example 73] | ≤ 10 | ≤ 10 |
| Cc1nc2c(N3C[C@@H](C)N(C(c4ccc(F)cc4)c4ccc(F)cc4)C[C@@H]3C)nc(=O)[nH]c2n1C[C@@H]1CCCO1 [Example 1, 6-((2S,5R)-4-(Bis(4-fluorophenyl)methyl)-2,5-dimethylpiperazin-1-yl)-8-methyl-9-(((S)-tetrahydrofuran-2-yl)methyl)-3,9-dihydro-2H-purin-2-one] | ≤ 10 | ≤ 100 |
| Cc1nc2c(N3C[C@@H](C)N(C(c4ccc(F)cc4)c4ccc(F)cc4)C[C@@H]3C)nc(=O)n(C)c2n1C[C@@H]1CCCO1 [Example 2, 6-((2S,5R)-4-(Bis(4-fluorophenyl)methyl)-2,5-dimethylpiperazin-1-yl)-3,8-dimethyl-9-(((S)-tetrahydrofuran-2-yl)methyl)-3,9-dihydro-2H-purin-2-one] | ≤ 10 | ≤ 10 |
| Cc1nc2c(N3C[C@@H](CO)N(C(c4ccc(F)cc4)c4ccc(F)cc4)C[C@@H]3C)nc(=O)n(C)c2n1C[C@@H]1CCCO1 [Example 3, 6-((2S,5S)-4-(Bis(4-fluorophenyl)methyl)-5-(hydroxymethyl)-2-methylpiperazin-1-yl)-3,8-dimethyl-9-(((S)-tetrahydrofuran-2-yl)methyl)-3,9-dihydro-2H-purin-2-one] | ≤ 10 | ≤ 10 |
| CC[C@@H]1CN(c2nc(=O)[nH]c3c2nc(C)n3C[C@@H]2CCCO2)[C@@H](C)CN1C(c1ccc(F)cc1)c1ccc(F)cc1 [Example 4, 6-((2S,5R)-4-(Bis(4-fluorophenyl)methyl)-5-ethyl-2-methylpiperazin-1-yl)-8-methyl-9-(((S)-tetrahydrofuran-2-yl)methyl)-3,9-dihydro-2H-purin-2-one] | ≤ 10 | ≤ 10 |
| CC[C@@H]1CN(c2nc(=O)n(C)c3c2nc(C)n3C[C@@H]2CCCO2)[C@@H](C)CN1C(c1ccc(F)cc1)c1ccc(F)cc1 [Example 5, 6-((2S,5R)-4-(Bis(4-fluorophenyl)methyl)-5-ethyl-2-methylpiperazin-1-yl)-3,8-dimethyl-9-(((S)-tetrahydrofuran-2-yl)methyl)-3,9-dihydro-2H-purin-2-one] | ≤ 10 | ≤ 10 |
| C[C@@H]1CN(c2nc(=O)n(C)c3c2ccn3C[C@@H]2CCCO2)[C@@H](C)CN1C(c1ccc(F)cc1)c1ccc(F)cc1 [Example 6, 4-((2S,5R)-4-(Bis(4-fluorophenyl)methyl)-2,5-dimethylpiperazin-1-yl)-1-methyl-7-(((S)-tetrahydrofuran-2-yl)methyl)-1,7-dihydro-2H-pyrrolo[2,3-d]pyrimidin-2-one] | ≤ 10 | ≤ 100 |
| C[C@@H]1CN(c2nc(=O)n(C)c3c2cnn3C)[C@@H](C)CN1C(c1ccc(F)cc1)c1ccc(F)cc1 [Example 7, 4-((2S,5R)-4-(Bis(4-fluorophenyl)methyl)-2,5-dimethylpiperazin-1-yl)-1,7-dimethyl-1,7-dihydro-6H-pyrazolo[3,4-d]pyrimidin-6-one] | ≤ 10 | > 1000 |
| C[C@@H]1CN(c2nc(=O)n(C)c3c2c(F)cn3C[C@@H]2CCCO2)[C@@H](C)CN1C(c1ccc(F)cc1)c1ccc(F)cc1 [Example 8, 4-((2S,5R)-4-(Bis(4-fluorophenyl)methyl)-2,5-dimethylpiperazin-1-yl)-5-fluoro-1-methyl-7-(((S)-tetrahydrofuran-2-yl)methyl)-1,7-dihydro-2H-pyrrolo[2,3-d]pyrimidin-2-one] | ≤ 100 | ≤ 100 |
| C[C@@H]1CN(c2nc(=O)[nH]c3c2ncn3C[C@@H]2CCCO2)[C@@H](C)CN1C(c1ccc(F)cc1)c1ccc(F)cc1 [Example 9, 6-((2S,5R)-4-(Bis(4-fluorophenyl)methyl)-2,5-dimethylpiperazin-1-yl)-9-(((S)-tetrahydrofuran-2-yl)methyl)-3,9-dihydro-2H-purin-2-one] | ≤ 100 | ≤ 100 |
